# Test results reported in the NIST ThermoML archive (doi:10.1016/j.tca.2019.178318).
# Numbers after ± are expanded uncertainties.
# Conditions: Liquid, Ebulliometric method (Recirculating still)
structure (smiles),measurement,setting,value
C=C1CC/C=C(\C)CC[C@@H]2[C@@H]1CC2(C)C,vapor or sublimation pressure,526.4 K,101.33 ± 4.1 kPa
same,vapor or sublimation pressure,526.47 K,101.33 ± 4.1 kPa
same,vapor or sublimation pressure,526.53 K,101.33 ± 4.1 kPa
Cc1ccc(C(C)C)cc1 [1-(1-methylethyl)-4-methylbenzene],vapor or sublimation pressure,449.7 K,101.33 ± 4.1 kPa
"C=C1C2CCC(C2)C1(C)C (stereo unspecified) [2,2-dimethyl-3-methylenebicyclo[2.2.1]heptane]",vapor or sublimation pressure,432.73 K,101.33 ± 4.1 kPa
same,vapor or sublimation pressure,432.74 K,101.33 ± 4.1 kPa
same,vapor or sublimation pressure,432.76 K,101.33 ± 4.1 kPa
same,vapor or sublimation pressure,432.8 K,101.33 ± 4.1 kPa
CC1=CCC2CC1C2(C)C (stereo unspecified) [2-pinene],vapor or sublimation pressure,428.64 K,101.33 ± 4.1 kPa
same,vapor or sublimation pressure,428.65 K,101.33 ± 4.1 kPa
CC1=CC[C@@H]2[C@H](C1)C2(C)C [(+)-3-carene],vapor or sublimation pressure,442.63 K,101.33 ± 4.1 kPa
